Experimental findings from patent US9173882B2, “Polycyclic heteroaryl substituted triazoles useful as Axl inhibitors” (Rigel Pharmaceuticals, Inc., priority 2008, dated 2015) are described below.

The target in this assay is T1, Axl (Homo sapiens, UniProt P30530).
T1 construct: endogenous in cells; host or cells: HeLa cells
T1 sequence (P30530 26-894): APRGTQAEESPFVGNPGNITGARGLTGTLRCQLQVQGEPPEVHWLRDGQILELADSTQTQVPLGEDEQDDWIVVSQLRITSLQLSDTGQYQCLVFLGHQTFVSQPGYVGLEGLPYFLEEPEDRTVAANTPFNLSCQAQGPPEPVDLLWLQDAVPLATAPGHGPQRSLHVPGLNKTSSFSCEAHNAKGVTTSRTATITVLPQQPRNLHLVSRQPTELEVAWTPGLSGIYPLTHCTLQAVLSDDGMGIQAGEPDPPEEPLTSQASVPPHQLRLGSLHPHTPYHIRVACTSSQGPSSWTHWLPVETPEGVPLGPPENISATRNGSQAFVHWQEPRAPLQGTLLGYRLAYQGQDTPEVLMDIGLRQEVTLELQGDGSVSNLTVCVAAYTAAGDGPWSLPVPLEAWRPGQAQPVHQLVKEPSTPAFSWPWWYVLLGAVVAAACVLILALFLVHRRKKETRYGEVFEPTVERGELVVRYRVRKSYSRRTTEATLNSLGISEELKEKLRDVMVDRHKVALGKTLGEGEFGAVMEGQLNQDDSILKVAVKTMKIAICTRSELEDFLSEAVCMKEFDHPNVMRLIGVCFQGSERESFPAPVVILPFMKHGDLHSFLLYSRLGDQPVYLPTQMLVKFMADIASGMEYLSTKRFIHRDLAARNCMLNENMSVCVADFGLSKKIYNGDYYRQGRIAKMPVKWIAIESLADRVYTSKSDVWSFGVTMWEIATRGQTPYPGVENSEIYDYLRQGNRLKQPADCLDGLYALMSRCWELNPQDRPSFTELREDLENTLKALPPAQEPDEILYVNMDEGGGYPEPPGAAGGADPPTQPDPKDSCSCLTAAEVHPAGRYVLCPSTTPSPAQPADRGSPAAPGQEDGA
Nature of the assay: Phospho-Akt in-cell Western assay. It is filed as cell-based. To be noted: Hela cells, stimulated by Axl-antibody cross-linking, phospho-Akt chemiluminescence. The protocol: Phospho-Akt in-Cell Western Assay
The compounds of the invention were tested in the following assay for their ability to inhibit Axl activity.
• Cell culture plate: 96 well assay plate (Corning 3610), white, clear bottom, tissue-culture treated. • Cells: Hela cells. • Starvation medium: For Axl stimulation: 0.5% FCS (fetal calf serum) in DMEM, plus Axl/Fc (extracellular domain of AXL fused to imunoglobulin Fc region) (R&D, 154-AL) 500 ng/mL. • For EGF (epidermal growth factor) stimulation: 0.5% FCS in DMEM (Dulbecco's modified Eagles medium). • Poly-L-Lysine 0.01% solution (the working solution): 10 μg/ml, dilute In PBS (phosphate buffered saline). • Axl antibody cross-linking: • 1st: Mouse anti-Axl (R&D, MAB154). • 2nd: Biotin-SP-conjugated AffiniPure goat anti-mouse IgG (H+L) (Jackson ImmunoResearch #115-065-003). • Fixing buffer: 4% formaldehyde in PBS. • Wash buffer: 0.1% TritonX-100 in PBS. • Quenching buffer: 3% H2O2, 0.1% Azide in wash buffer, Azide and hydrogen peroxide (H2O2) are added fresh. • Blocking buffer: 5% BSA in TBST (tris buffered saline plus 0.1% Tween 20). • Primary antibody: Rabbit anti-human Phospho-Akt antibody (Cell Signaling 9271): 1×250 diluted in blocking buffer. • Secondary antibody: HRP (horse radish peroxidase)-conjugated Goat anti-Rabbit secondary, stock solution: Jackson ImmunoResearch (Goat anti-Rabbit HRP, #111-035-144) 1:1 diluted in glycerol, store at −20° C. The working solution: 1×2000 dilution of stock in blocking buffer. • Chemiluminescent working solution (Pierce, 37030): SuperSignal ELISA (enzyme linked immunosorbant assay) Pico Chemiluminescent substrate. • Crystal Violet solution: Stock: 2.5% Crystal violet in methanol, filtered and kept at ambient temperature. The working solution: dilute the stock 1:20 with PBS immediately before use. • 10% SDS: working solution: 5% SDS (sodium dodecylsulfate), diluted in PBS Methods: Day 1:
A 96 well TC (tissue culture treated) plate was coated with 10 μg/mL poly-L-Lysine at 37° C. for 30 min, washed twice with PBS, and air-dried for 5 minutes before cells were added. Hela cells were seeded at 10,000 cells/well and the cells were starved in 100 μL starvation medium containing Axl/Fc for 24 hrs.
The cells were pre-treated with test compounds by adding 100 μL of 2× test compound to the starvation medium on the cells. The cells were incubated at 37° C. for 1 hr before stimulation.
The cells were stimulated by Axl-antibody cross-linking as follows: A 5× 1st/2nd Axl antibody mixture was made (37.5 μg/mL 1st/100 μg/mL 2nd) in starvation medium and nutated at 4° C. with thorough mixing for 1-2 hours for clustering. The resulting mix was warmed to 37° C. 50 μL of 5× Axl 1st/2nd of antibody cluster was added to the cells and the cells were incubated at 37° C. for 5 min.
After 5 minutes stimulation, the plate was flicked to remove medium and the plate was tapped onto paper towels. Formaldehyde (4.0% in PBS, 100 μL) was added to fix the cells and the cells were incubated at ambient temperature for 20 min without shaking.
The cells were washed with a plate washer buffer to remove the formaldehyde solution. The plate was flicked to removed excess wash buffer and tapped onto paper towels. Quenching buffer (100 μL) was added to each well and the cells were incubated at ambient temperature for 20 minutes without shaking.
The cells were washed with a plate washer buffer to remove the quenching buffer. Blocking buffer (100 μL) was added and the cells were incubated at ambient temperature for at least an hour with gentle shaking.
The cells were washed with a plate washer buffer and diluted primary antibody (50 μL) was added to each well (blocking buffer was added to the negative control wells instead). The plates were incubated overnight at 4° C. with gentle shaking.
The wash buffer was removed, diluted secondary antibody (100 μL) was added, and the cells were incubated at ambient temperature for 1 hour with gentle shaking. […]

Some results are limits rather than exact numbers.

As a reminder, the IC50 is the midpoint of a concentration-inhibition curve. For the compound `Nc1nc(Nc2ccc3c(c2)CCC(N2CCC(C(=O)O)CC2)CC3)nn1-c1cc2c(nn1)-c1ccccc1CCC2` (centres unmarked) [Compound 7, 1-(6,7-dihydro-5H-benzo[6,7]cyclohepta[1,2-c]pyridazin-3-yl)-N^3-(7-(4-(carboxy)piperidin-1-yl)-6,7,8,9-tetrahydro-5H-benzo[7]annulene-2-yl)-1H-1,2,4-triazole-3,5-diamine], the IC50 (Table 1, formula (Ia)) was < 1000 nM. As for `Nc1nc(Nc2ccc3c(c2)CC[C@@H](NC2CCC2)CC3)nn1-c1cc2c(nn1)-c1ccccc1CCC2` [Compound 32, 1-(6,7-dihydro-5H-benzo[6,7]cyclohepta[1,2-c]pyridazin-3-yl)-N^3-((7S)-7-(cyclobutylamino)-6,7,8,9-tetrahydro-5H-benzo[7]annulene-2-yl)-1H-1,2,4-triazole-3,5-diamine], where the note is “Table 1, formula (Ia)”, the IC50 was < 1000 nM. Turning to `CC(C)CCN(CCC(C)C)[C@H]1CCc2ccc(Nc3nc(N)n(-c4cc5c(nn4)-c4ccccc4CCC5)n3)cc2CC1` [Compound 40, 1-(6,7-dihydro-5H-benzo[6,7]cyclohepta[1,2-c]pyridazin-3-yl)-N^3-((7S)-7-(di(3-methylbutyl)amino)-6,7,8,9-tetrahydro-5H-benzo[7]annulene-2-yl)-1H-1,2,4-triazole-3,5-diamine], the IC50 (Table 1, formula (Ia)) fell in the range of 1000 to 10000 nM.

As for `Nc1nc(Nc2ccc3c(c2)CC[C@@H](NCC2CCCCC2)CC3)nn1-c1cc2c(nn1)-c1ccccc1CCC2` [Compound 26, 1-(6,7-dihydro-5H-benzo[6,7]cyclohepta[1,2-c]pyridazin-3-yl)-N^3-((7S)-7-((cyclohexylmethyl)amino)-6,7,8,9-tetrahydro-5H-benzo[7]annulene-2-yl)-1H-1,2,4-triazole-3,5-diamine], the IC50 (Table 1, formula (Ia)) was < 1000 nM. With `CC(C)(C)OC(=O)N[C@H]1CCc2ccc(Nc3nc(N)nn3-c3cc4c(nn3)-c3ccccc3CCC4)cc2CC1` [Compound 14, 1-(6,7-dihydro-5H-benzo[6,7]cyclohepta[1,2-c]pyridazin-3-yl)-N^5-((7S)-7-(t-butoxycarbonylamino)-6,7,8,9-tetrahydro-5H-benzo[7]annulene-2-yl)-1H-1,2,4-triazole-3,5-diamine], the IC50 (Table 2, formula (Ib)) is > 20000 nM. Consider `CN(C)[C@H]1CCc2ccc(Nc3nc(N)n(-c4cc5c(nn4)-c4ccccc4CCC5)n3)cc2CC1` [Compound 31, 1-(6,7-dihydro-5H-benzo[6,7]cyclohepta[1,2-c]pyridazin-3-yl)-N^3-((7S)-7-(dimethylamino)-6,7,8,9-tetrahydro-5H-benzo[7]annulene-2-yl)-1H-1,2,4-triazole-3,5-diamine], for which, under “Table 1, formula (Ia)”, the IC50 is < 1000 nM. `CC(C)CCN(CCC(C)C)[C@H]1CCc2ccc(Nc3nc(N)n(-c4cc5c(nn4)-c4cccnc4CCC5)n3)cc2CC1` [Compound 51, 1-(6,7-dihydro-5H-pyrido[2′,3′:6,7]cyclohepta[1,2-c]pyridazin-3-yl)-N^3-((7S)-7-(di(3-methylbutyl)amino)-6,7,8,9-tetrahydro-5H-benzo[7]annulene-2-yl)-1H-1,2,4-triazole-3,5-diamine] had an IC50 (Table 1, formula (Ia)) of 1000 to 10000 nM.

With `CN(C)[C@H]1CCc2ccc(Nc3nc(N)n(-c4cc5c(nn4)-c4cccnc4CCC5)n3)cc2CC1` [Compound 47, 1-(6,7-dihydro-5H-pyrido[2′,3′:6,7]cyclohepta[1,2-c]pyridazin-3-yl)-N^3-((7S)-7-(dimethylamino)-6,7,8,9-tetrahydro-5H-benzo[7]annulene-2-yl)-1H-1,2,4-triazole-3,5-diamine], the IC50 (Table 1, formula (Ia)) was 1000 to 10000 nM.

With `Nc1nc(Nc2ccc3c(c2)CC[C@@H](N(CC2CC4C=CC2C4)CC2CC4C=CC2C4)CC3)nn1-c1cc2c(nn1)-c1ccccc1CCC2` (stereo partly drawn) [Compound 37, 1-(6,7-dihydro-5H-benzo[6,7]cyclohepta[1,2-c]pyridazin-3-yl)-N^3-((7S)-7-(di(bicyclo[2.2.1]hept-2-en-5-ylmethyl)amino)-6,7,8,9-tetrahydro-5H-benzo[7]annulene-2-yl)-1H-1,2,4-triazole-3,5-diamine], the IC50 (Table 1, formula (Ia)) was in the range of 1000 to 10000 nM. As for `Nc1nc(Nc2ccc3c(c2)CC[C@@H](NC2CCCCC2)CC3)nn1-c1cc2c(nn1)-c1ccccc1CCC2` [Compound 21, 1-(6,7-dihydro-5H-benzo[6,7]cyclohepta[1,2-c]pyridazin-3-yl)-N^3-((7S)-7-(cyclohexylamino)-6,7,8,9-tetrahydro-5H-benzo[7]annulene-2-yl)-1H-1,2,4-triazole-3,5-diamine], the IC50 (Table 1, formula (Ia)) is < 1000 nM. Turning to `CCN(CC)[C@H]1CCc2ccc(Nc3nc(N)n(-c4cc5c(nn4)-c4cccnc4CCC5)n3)cc2CC1` [Compound 48, 1-(6,7-dihydro-5H-pyrido[2′,3′:6,7]cyclohepta[1,2-c]pyridazin-3-yl)-N^3-((7S)-7-(diethylamino)-6,7,8,9-tetrahydro-5H-benzo[7]annulene-2-yl)-1H-1,2,4-triazole-3,5-diamine], the IC50 (Table 1, formula (Ia)) was < 1000 nM. On to `CCOC(=O)CN1CCN(C2CCc3ccc(Nc4nc(N)n(-c5cc6c(nn5)-c5ccccc5CCC6)n4)cc3CC2)CC1` (centres unmarked) [Compound 9, 1-(6,7-dihydro-5H-benzo[6,7]cyclohepta[1,2-c]pyridazin-3-yl)-N^3-(7-(4-(ethoxycarbonylmethyl)piperazin-1-yl)-6,7,8,9-tetrahydro-5H-benzo[7]annulene-2-yl)-1H-1,2,4-triazole-3,5-diamine], for which, where the note is “Table 1, formula (Ia)”, the IC50 is < 1000 nM.

Consider `Nc1nc(Nc2ccc3c(c2)CC[C@@H](N(CC2CC2)CC2CC2)CC3)nn1-c1cc2c(nn1)-c1cccnc1CCC2` [Compound 50, 1-(6,7-dihydro-5H-pyrido[2′,3′:6,7]cyclohepta[1,2-c]pyridazin-3-yl)-N^3-((7S)-7-(di(cyclopropylmethyl)amino)-6,7,8,9-tetrahydro-5H-benzo[7]annulene-2-yl)-1H-1,2,4-triazole-3,5-diamine], for which, where the note is “Table 1, formula (Ia)”, the IC50 was < 1000 nM.

On to `CC(C)(C)OC(=O)N[C@H]1CCc2ccc(Nc3nc(N)n(-c4cc5c(nn4)-c4cccnc4CCC5)n3)cc2CC1` [Compound 44], for which the IC50 (Table 1, formula (Ia)) was > 20000 nM.
